# Measured values from US20120237614A1, “PEPTIDE ABLE TO DISRUPT THE PROTEIN COMPLEX BETWEEN THE HIS273 MUTADED P53 PROTEIN AND THE ONCOSUPPRESSIVE P73 PROTEIN IN TUMOR CELLS AND THERAPEUTIC USES THEREOF” (priority 2009, published 2012).
# Entries after “also recorded” stand apart in the source; their conditions may differ.
# Key:
# [1] = tested on: m-p53 His273 inhibition on p73 transcription activity; experiment: Transactivation test with pLUC-BAX reporter in transiently transfected H1299 cells; format: cell-based, human; settings: peptides 20 μM each
# Experimental: (A) MDA-MB-468 (5×10^5) cells have been transfected using a lipofectamine containing mixture, βgal expression vector, which normalizes transfection efficiency, and SIMPI peptide (20 μM). Total cellular lysates (1 mg), have been immunoprecipitated with antibodies directed against p73 and immunoglobulins (IgG). Immunoprecipitates and an aliquot (50 μg) of total lysate after 12% acrylamide gel electrophoretic run have been transferred on nitrocellulose membrane and labelled with antibodies shown in the figure. (B) MDA-MB-468 cells, have been transfected using SIMP1 and SIMP5,6. peptides. Successively, cells have been washed and stimulated with 3 μM Adriamycin. Total obtained lysates (30 μg) have been assayed for the expression of PARP and BAX apoptotic proteins. Lysate has been normalized by assaying γ-tubulin expression. (C-D). Transactivation tests have been carried out by transient transfection of H1299 cells using a mixture containing lipofectamine, SIMP1, SIMP5,6 indicated plasmids (20 μM each) together with pLUC-BAX reporter vector. To each reaction mixture an equal amount of […] expression vector was added, in order to normalize the transfection efficiency. […]
# To this end, we have analyzed the ability in blocking the His273 p53 induced inhibition on transcription activity. […]
# m-p53His-273/p73 complex = molecular target: T1, m-p53His-273/p73 complex (Homo sapiens, UniProt P04637, R273H); experiment: Coprecipitation (immunoprecipitation) test of the m-p53/p73 complex in MDA-MB-468 cells; format: cell-based; settings: His-273 mutation, peptide 20 μM, anti-p73 immunoprecipitation
# T1 construct: Total cellular lysates (1 mg), have been immunoprecipitated with antibodies directed against p73; endogenous in cells; host or cells: MDA-MB-468
# Experimental: (§1) (A) MDA-MB-468 (5×10^5) cells have been transfected using a lipofectamine containing mixture, βgal expression vector, which normalizes transfection efficiency, and SIMPI peptide (20 μM). Total cellular lysates (1 mg), have been immunoprecipitated with antibodies directed against p73 and immunoglobulins (IgG). Immunoprecipitates and an aliquot (50 μg) of total lysate after 12% acrylamide gel electrophoretic run have been transferred on nitrocellulose membrane and labelled with antibodies shown in the figure. (B) MDA-MB-468 cells, have been transfected using SIMP1 and SIMP5,6. peptides. Successively, cells have been washed and stimulated with 3 μM Adriamycin. Total obtained lysates (30 μg) have been assayed for the expression of PARP and BAX apoptotic proteins. Lysate has been normalized by assaying γ-tubulin expression. (C-D). Transactivation tests have been carried out by transient transfection of H1299 cells using a mixture containing lipofectamine, SIMP1, SIMP5,6 indicated plasmids (20 μM each) together with pLUC-BAX reporter vector. To each reaction mixture an equal amount of […] expression vector was added, in order to normalize the transfection efficiency.
# The cell extracts have been processed in a lysis buffer containing 50 mm Tris HCl pH 8, 100 mM NaCl, 10% glycerol, 1% Triton X-100, 1 mM EDTA, 100 mM NaF, MgCl2, 1 mM PMSF, protease and phosphatase inhibitors. Then extracts have been sonicated and centrifuged at 14.000 rpm for 10 min for the debris removal.
# 50 μg of solubilised proteins have been separated by electrophoresis on 10 or 15% SDS-polyacrylamide gel. Western blot analysis has been carried out using anti-p53 primary antibodies (DO1 Calbiochem), rabbit anti-PARP, rabbit polyclonal anti-Bax, anti-p21 and anti-tubulin monoclonal antibodies (Calbiochem). […] Immunolabelled lanes have been detected using chemiluminescence analysis (Pierce). […]
# In order to evaluate the activity of SIMPI peptide and SIMP1KO and SIMP1M derivatives the ability in disrupting the oncogenic m-p53His-273/p73 complex has been analysed.
# HT29 cells = experiment: In vivo tumorigenicity test (xenograft of peptide transfected HT29 cells); settings: naked mice, s.c. 5×10^5 peptide transfected cells/mouse, 5 weeks
# Experimental: In order to assay SIMP1 in vivo antitumor activity nu/nu […] mice were administered subcutaneously with SIMP1, SIMP1KO and SIMP5M transfected HT29 cells (5.0×10^5 cells/mouse). Tumour growth has been monitored over 5 weeks.
# Xenograft assays have been carried out by administration to naked mice subcutaneous injections containing 5×10^5 cells/mouse of SIMP1, SIMP1KO and SIMP5M peptide transfected colon and rectum tumour human cell line (nu/nu CD1 Charles River mice). The tumour growth together with animal body weight is monitored for 5 weeks in order to estimate the chronic toxicity
# The experiments have been carried out by administration to naked mouse (nu/nu CD1 Charles River mice) subcutaneous injections containing 5×10^5 cells/mouse. The tumour growth has been monitored together with animal body weight for 5 weeks in order to estimate possible not occurred chronic toxic effects (FIG. 5).
# [2] = tested on: tumour cell lines containing His-175 or His-273 p53 mutation; experiment: Summary of activity by p53 mutation type; format: cell-based; settings: FIG. 6 summary
# Excerpt: SIMP1M: FQQSSTARSATW (SEQ ID NO:16) (MW: 1369, PI: 9.75) peptide is a mutated version of SIMP1 peptide wherein K138 residue has been replaced by Arginine.
# FIG. 6 that SIMP peptides and by-products thereof displace protein complexes involving mutated protein p53 and p73.
# MDA-MB-468 cells = experiment: Apoptotic tests (PARP and BAX expression, Western blot) after Adriamycin; format: cell-based, human; settings: MDA-MB-468, 3 μM Adriamycin
# Experimental: as §1
# 50 μg of solubilised proteins have been separated by electrophoresis on 10 or 15% SDS-polyacrylamide gel. Western blot analysis has been carried out using anti-p53 primary antibodies (DO1 Calbiochem), rabbit anti-PARP, rabbit polyclonal anti-Bax, anti-p21 and anti-tubulin monoclonal antibodies (Calbiochem). Goat anti-mouse and goat anti-rabbit horse peroxidase conjugated secondary antibodies (Amersham) have been used for the expression analyses. Immunolabelled lanes have been detected using chemiluminescence analysis (Pierce).
# To this end cell viability and apoptotic tests (FIG. 1B, FIG. 4 B-C) on MDA-MB468 breast carcinoma have been carried out.
sequence,measurement,setting,value
FQQSSTAKSATW (p73 SIMP (aa 131-142)) [SIMP1],restoration of p73 transcription activity inhibited by m-p53 His273,[1],modify mutated p53/p73 protein complex restoring p73 oncosuppressive functions; also recorded: blocked the m-p53 His273 inhibition on p73 transcription activity
same,disruption of m-p53 His-273/p73 protein complex (p73 bound m-p53 amount),m-p53His-273/p73 complex,suitable to disrupt m-p53/p73 complexes in tumour cells containing his-273 mutation; also recorded: disrupt selectively m-p53/p73 complex
same,disruption of m-p53 His-273/p73 protein complex (p73 bound m-p53 amount),m-p53His-273/p73 complex; listed as SIMPI,disrupts mutated p53/p73 protein complex; also recorded: largely reduced
same,tumour growth (tumour size) in vivo,HT29 cells,tumour growth is decreased; also recorded: meaningful reduction of the growth (tumour size)
same,specificity for p53 mutation type,[2],display specificity for His-273 mutation containing tumours
same,apoptotic response,MDA-MB-468 cells,increase the apoptotic response to chemotherapeutic agents
same,apoptotic response,MDA-MB-468 cells; listed as SIMPI,increases the apoptotic response
